Measurements from patent US20120208776A1 (priority 2002, published 2012).
Where “and” joins values, the source holds several entries; their conditions need not be identical. Equal entries are not always repeated. Where two headings read alike, the source gives them in different places.

Experiments:
MCF7 cells = assay: Western-blot analysis; type: cell-based, human
Method: Cells were treated for increasing times with approximately the IC50 concentration, or twice the IC50 concentration, of actein. The cells were harvested, washed with PBS, and sonicated in extraction buffer according to the procedure of Han et al. (Han et al., Stable overexpression of cyclin D1 in a human mammary epithelial cell line prolongs the S-phase, and inhibits growth. Oncogene, 10:953-61, 1995). The lysates were subjected to electrophoresis on a 10% or 12.5% SDS-polyacrylamide gel, and then transferred to a polyvinylidene difluoride (PVDF) membrane. The membrane was blocked with milk protein, and incubated with a solution containing the primary antibody against the following: cyclin D1 (Upstate Biotechnology, Lake Placid, N.Y.), p21^cip1 (Oncogene Research Products, Darmstadt, Germany), ppRb (ser 780, Medical and Biological Laboratories, Nagoya, Japan), cdk4 (Upstate Biotechnology, Lake Placid, N.Y.), EGFR (clone-74, Transduction Laboratories, Lexington, Ky.), p-EGFR (phospho (Y1173)-EGFR) (Cell Signaling, Beverly, Mass.), actin (Sigma, St. Louis, Mo.), Her-2/neu (Cell Signaling, Beverly, Mass.), or phospho-(Y1248)-Her-2/neu (Cell Signaling, Beverly, Mass.)), IκB (Sant Cruz Biotechnolgy, Santa Cruz, Calif.), IκκB (Sigma, St. Louis, Mo.) and PPARγ (Santa Cruz biotechnology, Santa Cruz, Calif.) (Masuda et al., Epigallocatechin-3-gallate inhibits activation of HER-2/neu and downstream signaling pathways in human head and neck and breast carcinoma cells. Clin. Cancer Res., 9: 3486-91, 2003). The membrane was washed, and incubated with horseradish peroxidase conjugated secondary antibody.
Protein bands were visualized with the ECL-enhanced chemiluminescence system, according to the manufacturer's directions (Amersham Pharmacia Biotech) (Sgambato et al., Overexpression of p27 (Kip1) inhibits the growth of both normal and transformed human mammary epithelial cells. Cancer Research, 58:3448-54, 1998). The staining intensities of the visualized blots were quantified using NIH image software. For each protein, the relative band intensities were determined by comparing treated samples with untreated controls. These values were then normalized, using β-actin as an internal control.

[1] = Pharmacokinetic analysis of actein in serum and urine (HPLC-MS); type: in vivo; settings: female, Sprague-Dawley, rat, oral, rats, 35.7 mg/kg
Method: In this study two groups of 8 female rats were each treated with: 1) 35.7 mg/kg of actein, and 2) 1/5 this dose, 7.14 mg/kg, by gastric intubation. A control group of 8 female rats was treated by gastric intubation with 1 cc of water. Afresh solution of actein, suspended in water, was prepared just before the treatment.
Blood and urine collection: To determine the serum concentration of actein at different times during 24 hours, blood was sequentially collected from 4 animals of the group treated with 35.7 mg/kg actein at intervals of 0, 5, 15, 30, 60 minutes and 2, 4, 6, 8 and 24 hours after the administration of actein. For the 24 hour period, animals were starved with free access to water. Blood samples (0.5 ml) were collected through contusion of the retrobulbar plexus with a siliconated glass Pasteur pipette after anaesthetization with ethyl ether. Immediately after sacrifice, blood was drawn from the portal vein with a sterile syringe into vials without anticlotting agents. Ten minutes after each sampling (the time necessary for the formation of the clot), blood was centrifuged at 1500 g for 10 minutes, then serum was stored in cryogenic screw cap vials at −70° C. […]
HPLC-MS analysis was performed, in duplicate, by Chromadex to determine the presence and quantity of actein in serum and urine samples from Sprague-Dawley rats treated with 35.7 mg/kg actein. […]

MDA-MB-453 cells = type: cell-based, human
Method: RNA was isolated as previously described. […] Total RNA (8 μg) was reverse transcribed with T7-(dT)24 primer and Super Script III reverse transcriptase (Invitrogen). After purification, cDNA was in vitro transcribed into biotin labeled antisense cRNA with the BioArray high yield RNA transcript labeling kit (Enzo Life Sciences; Farmingdale, N.Y.), according to a modified Affymetrix protocol. cRNA (15 μg) was fragmented into the final probe and hybridized to human U133A 2.0 gene chips (Affymetrix, Inc.; Santa Clara, Calif.), comprised of more than 22,000 probe sets. The Institute for Cancer Genetics Core Facility at the Columbia Genome Center performed the hybridization.
Two or three replicates of each microarray were performed to determine intrasample variation. To bolster the robustness of the analysis, the effects of 4 doses for 2 time periods were examined.
All analyses were performed using the AffyLimmaGUI package in the open-source Bioconductor suite, as previously described. […] Variability is reported in terms of a p-value representing the probability that differences between treated and untreated could occur by chance. The p-value takes into account both the variability within groups (in this case the groups are treated and control) and the variability between groups.

In the case of `CC(=O)O[C@@H]1C[C@@]23C[C@@]24CC[C@H](O[C@@H]2OC[C@@H](O)[C@H](O)[C@H]2O)C(C)(C)[C@@H]4CC[C@H]3[C@]2(C)C[C@@H]3O[C@]4(C[C@@H](C)[C@@H]3[C@@]12C)O[C@H](O)[C@@]1(C)O[C@@H]41` [actein], the “cellular level of cyclin D1” value (MCF7 cells; 40 μg/ml, 24 h) is reported as “almost a complete loss”, the “level of EGFR” value (MCF7 cells; 20 or 40 μg/ml) is reported as “not significantly affected” and the “p21cip1 band intensity relative to β-actin” value (MCF7 cells; 3 h, 20 μg/ml) is reported as 1.47 fold. The “ppRb band intensity relative to β-actin” value (MCF7 cells; 3 h, 20 μg/ml) was 1.51 fold, the “p21cip1 band intensity relative to β-actin” value (MCF7 cells; 3 h, 40 μg/ml) was 1.17 fold and 1 fold and the “ppRb band intensity relative to β-actin” value (MCF7 cells; 3 h, 40 μg/ml) was 1.59 fold. The “p21cip1 band intensity relative to β-actin” value (MCF7 cells; 10 h, 20 μg/ml) was 1.75 fold, the “ppRb band intensity relative to β-actin” value (MCF7 cells; 10 h, 20 μg/ml) was 0.61 fold and the “p21cip1 band intensity relative to β-actin” value (MCF7 cells; 10 h, 40 μg/ml) was 1.37 fold. For the same compound, the “ppRb band intensity relative to β-actin” value (MCF7 cells; 10 h, 40 μg/ml) was 0.64 fold, the “p21cip1 band intensity relative to β-actin” value (MCF7 cells; 24 h, 20 μg/ml) was 0.94 fold and the “ppRb band intensity relative to β-actin” value (MCF7 cells; 24 h, 20 μg/ml) was 0.80 fold and 0.8 fold. The “p21cip1 band intensity relative to β-actin” value (MCF7 cells; 24 h, 40 μg/ml) was 0.78 fold, the “ppRb band intensity relative to β-actin” value (MCF7 cells; 24 h, 40 μg/ml) was 0.43 fold and the concentration at 24 h ([1]; serum, 24 hours, read-out: level of actein in serum) was 102 ng/mL. The concentration at 24 h ([1]; urine, 24 h, read-out: level of actein in urine) was 777 ng/mL.

In the case of `C[C@H]1O[C@@H](O[C@H]2[C@@H](O)C[C@H](O[C@H]3[C@@H](O)C[C@H](O[C@H]4CC[C@@]5(C)[C@H](CC[C@@H]6[C@@H]5CC[C@]5(C)[C@@H](C7=CC(=O)OC7)CC[C@]65O)C4)O[C@@H]3C)O[C@@H]2C)C[C@H](O)[C@@H]1O` [digitoxin], the “number of genes with significantly altered expression” value (MDA-MB-453 cells; digitoxin 20 ng/ml, 24 hours) is reported as 22, the “number of genes altered” value (MDA-MB-453 cells; digitoxin 0.1 μg/mL, 6 hours) is reported as 2 and the “number of genes altered” value (MDA-MB-453 cells; digitoxin 0.1 μg/mL, 24 hours) is reported as 8. For the same compound, the “number of genes altered” value (MDA-MB-453 cells; digitoxin 0.2 μg/mL, 6 hours) was 6, the “number of genes altered” value (MDA-MB-453 cells; digitoxin 0.2 μg/mL, 24 hours) was 88 and the “number of genes altered” value (MDA-MB-453 cells; digitoxin 1 μg/mL, 6 hours) was 87. For the same compound, the “number of genes altered” value (MDA-MB-453 cells; digitoxin 1 μg/mL, 24 hours) was 1491.
